Measured values: patent US4672036A, “Pure cultures of Kibdelsporangium aridum Shearer gen. nov., sp. nov. ATCC 39323 and mutants thereof” (SmithKline Beckman Corporation, priority 1985, dated 1987)
Values after ≈ are worked out from the molar mass of the structure shown. Values joined by “and” are separate entries in the source; they are usually repeats but may differ in a detail not shown here. Identical values can stand only once.

Experiments:
Strep. faecilis HH34358 = format: cell-based; conditions: Table A
[1] = system: Proteus mirabilis SK & F 444; format: cell-based; conditions: Table A
[2] = system: E. coli 12140 (SK & F 809); format: cell-based; conditions: Table A
[3] = system: Kleb. pneumoniae 4200 (SK & F 798); format: cell-based; conditions: Table A
[4] = system: Pseudomonas aeruginosa HH63; format: cell-based; conditions: Table A
[5] = system: Serratia marcesens ATCC 13880; format: cell-based; conditions: Table A
[6] = system: Proteus morgani SK & F 179; format: cell-based; conditions: Table A
Providencia SK & F 276 = format: cell-based; conditions: Table A
[7] = system: Enterobacter cloacae HH31254; format: cell-based; conditions: Table A
[8] = system: Listeria monocytogenes SK & F 2255; format: cell-based; conditions: Table A
[9] = system: Staph. aureus SK & F 2613; format: cell-based; conditions: Table B, Methicillin Sensitive
[10] = system: Bacteroides fragilis ATCC 25285; format: cell-based; conditions: Table D, Anaerobes
B. fragilis H145 = format: cell-based, Bacteroides fragilis; conditions: Table D, Anaerobes
B. fragilis SK & F 3060 = format: cell-based, Bacteroides fragilis; conditions: Table D, Anaerobes
B. loeochii SK & F 3087 = format: cell-based; conditions: Table D, Anaerobes
[11] = system: B. thetaiotamicron SK & F 3089; format: cell-based; conditions: Table D, Anaerobes
[12] = system: Fusobacterium nucleatum ATCC 25586; format: cell-based; conditions: Table D, Anaerobes
Swine in vitro model = assay: swine in vitro model (growth promotant activity)
rumen in vitro model [13] = assay: rumen in vitro model (growth promotant activity); set-up: species or system steer
Experimental: The protocol for the rumen in vitro model is analogous to the protocol for the swine in vitro model with the following modifications:
(1) A 400 kg steer is surgically prepared with a rumen cannula.
(2) The animal is fed one time a day with the following ration:
(3) Manipulation of VFA production is described as the production ratio of propionate as a percentage of total VFA produced.
(4) Sampling of the material, via the cannula, is at 120 minutes post feeding.

solubility = format: physicochemical
[14] = system: Salmonella gallinarum BC595; conditions: Table A
[15] = system: Clostridium perfringens MCP-1; conditions: Table D, Anaerobes
C. perfringens MCP-2 = conditions: Table D, Anaerobes
[16] = system: C. perfringens ATCC 19408; conditions: Table D, Anaerobes
rumen in vitro model [17] = assay: rumen in vitro model (growth promotant activity); set-up: species or system steer; remark: listed apart in the source

CN[C@H]1C(=O)N[C@H]2C(=O)N[C@H](C(=O)N[C@H]3C(=O)N[C@H]4C(=O)N[C@H](C(=O)N[C@H](C(=O)O)c5cc(O)cc(O[C@H]6O[C@H](CO)[C@@H](O)[C@H](O)[C@@H]6O)c5-c5cc4ccc5O)[C@H](O)c4cc(Cl)c(c(Cl)c4)Oc4cc3cc(c4O[C@@H]3O[C@H](C(=O)O)[C@@H](O)[C@H](O)[C@H]3NC(=O)CCCCCCCC(C)C)Oc3ccc(cc3Cl)[C@H]2O)c2cc(cc(O)c2Cl)Oc2cc1ccc2O [AAD 216B]
MIC (Strep. faecilis HH34358): 0.4 µg/mL (≈ 0.222 µM)
MIC [1]: > 100 µg/mL
MIC [2]: > 100 µg/mL
MIC [3]: > 100 µg/mL
MIC [4]: > 100 µg/mL
MIC [5]: > 100 µg/mL
MIC [6]: > 100 µg/mL
MIC (Providencia SK & F 276): > 100 µg/mL
MIC [7]: > 100 µg/mL
MIC [8]: 0.4 µg/mL (≈ 0.222 µM)
MIC [9]: 1.6 µg/mL (≈ 0.887 µM)
MIC [10]: 32 µg/mL (≈ 17.7 µM)
MIC (B. fragilis H145): 16 µg/mL (≈ 8.87 µM)
MIC (B. fragilis SK & F 3060): 16 µg/mL (≈ 8.87 µM)
MIC (B. loeochii SK & F 3087): 16 µg/mL (≈ 8.87 µM)
MIC [11]: 32 µg/mL (≈ 17.7 µM)
MIC [12]: 32 µg/mL (≈ 17.7 µM)
GLU (glucose) (Swine in vitro model): 190 % Control and 184 % Control and 97 % Control
LYS (lysine) (Swine in vitro model): 50 % Control and 55 % Control
VFA (total of volatile fatty acids) (rumen in vitro model [13]): 111 % Control and 121 % Control
solubility (solubility; H2O, methanol, dimethylsulfoxide, dimethylformamide): soluble
solubility (solubility; ethanol, acetonitrile, acetone, diethylether, aliphatic hydrocarbons): insoluble
MIC [14]: > 100 µg/mL
MIC [15]: 0.125 µg/mL (≈ 0.0693 µM)
MIC (C. perfringens MCP-2): 0.125 µg/mL (≈ 0.0693 µM)
MIC [16]: 0.125 µg/mL (≈ 0.0693 µM)
LYS (lysine) (rumen in vitro model [17]): 124 % Control and 107 % Control and 103 % Control
